How the values were obtained:
μOR = biological target: T1, μOR (Homo sapiens, UniProt P35372); experiment: cell-based; assay type: cell-based
T1 construct: host or cells: CHO-K1

MOR = MOR (Homo sapiens, UniProt P35372); experiment: PDSP radioligand displacement binding; conditions: average of three independent trials
DOR = DOR (Homo sapiens, UniProt P41143); experiment: PDSP radioligand displacement binding; conditions: average of three independent trials
5-HT3 = biological target: T2, 5-HT3 (Homo sapiens, UniProt P46098); experiment: PDSP radioligand displacement binding; conditions: average of three independent trials
T2 sequence (P46098 24-478): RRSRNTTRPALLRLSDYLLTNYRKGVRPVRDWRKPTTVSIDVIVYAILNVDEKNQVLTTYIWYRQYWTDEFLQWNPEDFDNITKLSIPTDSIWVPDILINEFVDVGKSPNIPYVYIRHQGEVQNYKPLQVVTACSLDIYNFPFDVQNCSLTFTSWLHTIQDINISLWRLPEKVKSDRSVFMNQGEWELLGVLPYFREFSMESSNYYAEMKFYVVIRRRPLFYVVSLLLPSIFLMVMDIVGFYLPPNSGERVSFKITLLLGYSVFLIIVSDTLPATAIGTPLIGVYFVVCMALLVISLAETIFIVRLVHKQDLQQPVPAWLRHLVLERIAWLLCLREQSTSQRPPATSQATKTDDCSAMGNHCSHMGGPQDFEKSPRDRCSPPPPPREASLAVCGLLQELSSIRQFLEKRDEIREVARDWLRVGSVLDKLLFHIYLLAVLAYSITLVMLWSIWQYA

Alpha1B = biological target: T3, Alpha1B (Homo sapiens, UniProt P35368); experiment: PDSP radioligand displacement binding; conditions: average of three independent trials
T3 sequence (P35368 1-520): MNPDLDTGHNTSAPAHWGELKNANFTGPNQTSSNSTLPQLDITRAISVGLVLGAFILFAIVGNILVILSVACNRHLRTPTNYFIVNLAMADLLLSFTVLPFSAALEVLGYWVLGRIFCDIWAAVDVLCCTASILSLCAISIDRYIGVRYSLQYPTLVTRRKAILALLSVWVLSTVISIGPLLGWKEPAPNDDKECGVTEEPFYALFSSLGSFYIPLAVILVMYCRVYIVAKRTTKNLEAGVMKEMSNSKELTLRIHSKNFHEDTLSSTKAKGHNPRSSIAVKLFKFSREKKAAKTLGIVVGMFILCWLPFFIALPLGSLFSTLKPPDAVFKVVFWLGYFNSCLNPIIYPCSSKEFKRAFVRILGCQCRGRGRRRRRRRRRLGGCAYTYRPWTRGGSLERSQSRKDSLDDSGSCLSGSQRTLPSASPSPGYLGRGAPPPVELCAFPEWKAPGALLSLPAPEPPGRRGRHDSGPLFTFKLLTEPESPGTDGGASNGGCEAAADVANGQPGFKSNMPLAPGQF

Alpha2A = biological target: T4, Alpha2A (Homo sapiens, UniProt P08913); experiment: PDSP radioligand displacement binding; conditions: average of three independent trials
T4 sequence (P08913 1-465): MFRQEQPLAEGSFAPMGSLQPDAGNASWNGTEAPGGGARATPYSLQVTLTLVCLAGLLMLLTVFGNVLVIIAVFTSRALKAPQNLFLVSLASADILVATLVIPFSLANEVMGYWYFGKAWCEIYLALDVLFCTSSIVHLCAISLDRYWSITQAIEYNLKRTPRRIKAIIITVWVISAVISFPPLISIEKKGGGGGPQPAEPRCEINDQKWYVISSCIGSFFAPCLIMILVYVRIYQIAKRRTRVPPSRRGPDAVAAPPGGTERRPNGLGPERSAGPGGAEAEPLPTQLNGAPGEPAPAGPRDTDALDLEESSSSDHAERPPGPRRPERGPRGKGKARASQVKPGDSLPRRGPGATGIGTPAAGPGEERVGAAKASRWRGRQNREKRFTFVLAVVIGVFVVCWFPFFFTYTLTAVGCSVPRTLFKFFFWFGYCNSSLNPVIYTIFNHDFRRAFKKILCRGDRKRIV

Alpha2B = biological target: T5, Alpha2B (Homo sapiens, UniProt P18089); experiment: PDSP radioligand displacement binding; conditions: average of three independent trials
T5 sequence (P18089 1-450): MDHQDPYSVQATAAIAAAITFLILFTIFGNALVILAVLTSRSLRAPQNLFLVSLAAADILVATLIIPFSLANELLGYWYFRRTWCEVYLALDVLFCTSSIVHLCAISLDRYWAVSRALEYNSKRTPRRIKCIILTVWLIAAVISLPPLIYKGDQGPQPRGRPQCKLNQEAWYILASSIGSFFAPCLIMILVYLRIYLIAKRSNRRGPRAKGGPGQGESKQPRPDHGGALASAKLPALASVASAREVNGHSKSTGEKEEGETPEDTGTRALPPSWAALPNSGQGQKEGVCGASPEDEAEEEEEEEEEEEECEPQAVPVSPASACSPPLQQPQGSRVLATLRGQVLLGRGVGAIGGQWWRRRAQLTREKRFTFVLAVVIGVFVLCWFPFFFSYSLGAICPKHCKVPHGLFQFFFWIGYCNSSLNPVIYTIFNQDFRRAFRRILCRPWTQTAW

Alpha2C = biological target: T6, Alpha2C (Homo sapiens, UniProt P18825); experiment: PDSP radioligand displacement binding; conditions: average of three independent trials
T6 sequence (P18825 1-462): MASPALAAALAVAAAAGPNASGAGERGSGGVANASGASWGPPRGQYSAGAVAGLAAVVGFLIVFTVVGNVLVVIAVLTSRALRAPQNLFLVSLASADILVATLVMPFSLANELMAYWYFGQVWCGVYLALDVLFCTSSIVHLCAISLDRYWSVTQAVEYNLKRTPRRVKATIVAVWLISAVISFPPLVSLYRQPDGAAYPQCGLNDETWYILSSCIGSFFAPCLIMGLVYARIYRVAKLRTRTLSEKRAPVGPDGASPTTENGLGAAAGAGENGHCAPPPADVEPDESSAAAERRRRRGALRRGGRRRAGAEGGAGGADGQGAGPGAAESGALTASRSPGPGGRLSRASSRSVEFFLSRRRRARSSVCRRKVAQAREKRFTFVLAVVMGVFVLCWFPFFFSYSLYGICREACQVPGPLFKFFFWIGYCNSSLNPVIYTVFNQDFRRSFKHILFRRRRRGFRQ

HERG = HERG (Homo sapiens, UniProt Q12809); experiment: PDSP radioligand displacement binding; conditions: average of three independent trials
NET = NET (Homo sapiens, UniProt P23975); experiment: PDSP radioligand displacement binding; conditions: average of three independent trials
Sequence of NET (P23975 whole entry): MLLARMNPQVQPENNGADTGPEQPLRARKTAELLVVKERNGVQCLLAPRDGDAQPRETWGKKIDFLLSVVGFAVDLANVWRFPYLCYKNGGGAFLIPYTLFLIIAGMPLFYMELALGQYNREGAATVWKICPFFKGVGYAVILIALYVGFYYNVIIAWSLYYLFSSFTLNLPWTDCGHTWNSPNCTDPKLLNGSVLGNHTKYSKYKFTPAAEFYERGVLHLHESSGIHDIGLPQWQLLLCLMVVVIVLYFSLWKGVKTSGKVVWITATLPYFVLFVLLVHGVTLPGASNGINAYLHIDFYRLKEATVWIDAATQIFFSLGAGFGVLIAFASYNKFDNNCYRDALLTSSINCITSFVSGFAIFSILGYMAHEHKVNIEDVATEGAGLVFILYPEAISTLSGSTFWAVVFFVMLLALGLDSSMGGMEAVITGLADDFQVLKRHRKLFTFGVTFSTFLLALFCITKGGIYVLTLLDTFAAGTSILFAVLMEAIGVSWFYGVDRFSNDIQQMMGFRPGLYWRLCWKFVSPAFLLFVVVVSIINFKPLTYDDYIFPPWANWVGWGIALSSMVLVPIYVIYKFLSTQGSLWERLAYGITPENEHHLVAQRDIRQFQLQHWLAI

T1 sequence (P35372 whole entry): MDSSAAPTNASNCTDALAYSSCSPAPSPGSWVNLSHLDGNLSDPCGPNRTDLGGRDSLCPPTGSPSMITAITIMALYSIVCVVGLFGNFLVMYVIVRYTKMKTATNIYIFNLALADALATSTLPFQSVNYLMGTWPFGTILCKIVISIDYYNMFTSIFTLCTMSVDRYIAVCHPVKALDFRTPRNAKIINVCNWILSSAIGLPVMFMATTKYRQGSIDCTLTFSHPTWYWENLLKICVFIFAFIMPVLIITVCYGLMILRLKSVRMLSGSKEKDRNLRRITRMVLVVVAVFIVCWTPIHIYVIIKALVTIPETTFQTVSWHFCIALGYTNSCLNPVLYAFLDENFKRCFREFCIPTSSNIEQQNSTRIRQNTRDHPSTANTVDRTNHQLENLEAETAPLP
Sequence of MOR (P35372 whole entry): as above
Sequence of HERG (Q12809 whole entry): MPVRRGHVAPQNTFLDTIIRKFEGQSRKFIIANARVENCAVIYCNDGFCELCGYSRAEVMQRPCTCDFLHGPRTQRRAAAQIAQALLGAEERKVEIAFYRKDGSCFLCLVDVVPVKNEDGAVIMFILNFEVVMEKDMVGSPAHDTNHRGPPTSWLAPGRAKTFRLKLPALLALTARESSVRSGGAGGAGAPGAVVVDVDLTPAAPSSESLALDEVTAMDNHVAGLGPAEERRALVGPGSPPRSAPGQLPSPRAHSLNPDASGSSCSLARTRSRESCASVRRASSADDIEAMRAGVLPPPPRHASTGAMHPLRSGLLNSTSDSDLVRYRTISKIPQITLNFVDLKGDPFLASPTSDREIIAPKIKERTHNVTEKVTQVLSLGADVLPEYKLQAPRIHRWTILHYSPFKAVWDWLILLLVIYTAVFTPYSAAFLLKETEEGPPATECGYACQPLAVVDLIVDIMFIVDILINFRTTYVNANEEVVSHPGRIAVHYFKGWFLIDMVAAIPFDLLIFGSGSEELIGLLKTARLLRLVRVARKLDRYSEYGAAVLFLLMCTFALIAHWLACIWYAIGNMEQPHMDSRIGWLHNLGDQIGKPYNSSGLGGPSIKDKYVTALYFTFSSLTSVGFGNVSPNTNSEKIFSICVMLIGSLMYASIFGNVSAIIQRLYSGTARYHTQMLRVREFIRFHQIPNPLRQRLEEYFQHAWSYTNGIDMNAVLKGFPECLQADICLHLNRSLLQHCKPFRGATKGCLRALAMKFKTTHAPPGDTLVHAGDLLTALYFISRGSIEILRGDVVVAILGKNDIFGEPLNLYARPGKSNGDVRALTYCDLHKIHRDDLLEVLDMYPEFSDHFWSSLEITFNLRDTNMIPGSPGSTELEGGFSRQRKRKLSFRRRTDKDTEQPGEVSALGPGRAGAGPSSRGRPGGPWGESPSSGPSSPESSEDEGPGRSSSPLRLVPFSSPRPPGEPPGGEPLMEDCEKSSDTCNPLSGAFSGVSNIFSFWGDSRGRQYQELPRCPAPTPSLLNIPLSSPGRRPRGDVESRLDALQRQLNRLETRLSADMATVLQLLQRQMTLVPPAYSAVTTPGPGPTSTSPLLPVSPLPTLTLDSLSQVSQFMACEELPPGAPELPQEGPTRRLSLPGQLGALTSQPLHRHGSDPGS
Sequence of DOR (P41143 whole entry): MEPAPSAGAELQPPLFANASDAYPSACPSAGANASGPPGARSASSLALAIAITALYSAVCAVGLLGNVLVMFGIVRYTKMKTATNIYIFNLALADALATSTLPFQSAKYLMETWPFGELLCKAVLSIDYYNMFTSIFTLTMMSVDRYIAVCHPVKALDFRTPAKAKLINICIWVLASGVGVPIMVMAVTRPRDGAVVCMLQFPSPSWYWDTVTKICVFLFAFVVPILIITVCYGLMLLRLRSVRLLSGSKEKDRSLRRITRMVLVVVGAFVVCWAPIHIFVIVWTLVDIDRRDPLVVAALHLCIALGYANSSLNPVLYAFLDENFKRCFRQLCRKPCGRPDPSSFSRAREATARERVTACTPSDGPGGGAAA

Row | Structure (SMILES) | agonist activity at the μOR (μOR) | Ki (nM) at MOR (MOR) | Ki (nM) at DOR (DOR) | Ki (5-HT3) [nM] | Ki (Alpha1B) [nM] | Ki (Alpha2A) [nM] | Ki (Alpha2B) [nM] | Ki (Alpha2C) [nM] | Ki (HERG) [nM] | Ki (nM) at NET (NET) | μOR cAMP inhibition Emax ± SEM (%) (μOR) | μOR cAMP inhibition pEC50 ± SEM (μOR) | EC50 (μOR; read-out: μOR cAMP inhibition EC50) [nM] | Ki (nM) at Alpha2B (Alpha2B) | Ki (NET) [nM]
1 | C/C=C1/CN2CC[C@]34C(=C(C(=O)OC)[C@H]1C[C@H]23)Nc1ccc(Br)cc14 [Compound 2, 10-Bromoakuammicine] | only weakly activated the μOR | — (“—” indicates compound produced less than 50% displacement of radioligand in primary binding screen at 10 μM.) | — (“—” indicates compound produced less than 50% displacement of radioligand in primary binding screen at 10 μM.) | 210 | 2880 | > 10000 | 1250 | 2910 | 1340 | — (“—” indicates compound produced less than 50% displacement of radioligand in primary binding screen at 10 μM.) | – | – | – | – | –
2 | C/C=C1/CN2CC[C@]34C(=C(C(=O)OC)[C@H]1C[C@H]23)Nc1ccc(I)cc14 [Compound 3, 10-Iodoakuammicine] | only weakly activated the μOR | — (“—” indicates compound produced less than 50% displacement of radioligand in primary binding screen at 10 μM.) | — (“—” indicates compound produced less than 50% displacement of radioligand in primary binding screen at 10 μM.) | 384 | 2020 | 732 | – | 2860 | 1100 | – | <10 | 4.4 ± 1.9 | 41000 | — (“—” indicates compound produced less than 50% displacement of radioligand in primary binding screen at 10 μM.) | 3440

— patent publication US20250051332A1 (priority 2022, published 2025)
